Results reported in article PMC3048208 (British Journal of Cancer, 2011).
Structures can show the parent of a compound that is named as a salt.

Tested on: patients with advanced solid tumours
Experiment: Phase I safety: DLT and adverse events (CTCAE v3.0)
Conditions: Grades 3/4
[1] = level 1, 10 mg 3 days every 2 weeks, 3 patients

Description: Study drug was administered at a starting dose of 10 mg on days 1–3 and 15–17 for the first dose level while for subsequent dose levels, treatment was administered on days 1–5 and 15–19, within a 28-day cycle. No intra-patient dose escalation was allowed. Dose escalation followed the standard 3+3 rule, but the protocol did allow up to four patients to be entered in the first stage of accrual at each dose level. The maximum administered dose was defined as the dose level at which ⩾2/3 or ⩾2/6 patients experienced dose-limiting toxicity (DLT). The next lower dose would normally be declared the RPTD for expansion to confirm the tolerability and PK and/or PD relationships at this dose level.
In cycle 1, patients were seen on days 1, 5, 8, 15, 19, 22 and weekly in subsequent cycles for laboratory studies and assessment of toxicity. […] In addition, troponin levels were obtained on days 1, 5, 15 in cycle 1 and on day 1 of subsequent cycles.
Patients who experienced any DLT were delayed by 1-week intervals until recovery and could continue on study drug with a reduction of one dose level. If no recovery occurred after a delay of 2 weeks from the next scheduled 5-day treatment, patients were discontinued from protocol treatment. In addition, patients must have an absolute neutrophil count of ⩾1.5 × 10^9 l^−1 and a platelet level of ⩾100 × 10^9 l^−1 before day 1 and 15 dosing.

## CCCCc1nc2cc(/C=C/C(=O)NO)ccc2n1CCN(CC)CC [SB939, 3-[2-butyl-1-(2-diethylaminoethyl)-1H-benzoimidazol-5-yl]-N-hydroxyacrylami-hydrochloride]
[1]
  Myositis, no. of patients: 0
  Nausea, no. of patients: 0
  Neutropenia, no. of patients: 1
  QT prolongation, no. of patients: 0
  Supra ventricular arrythmia, no. of patients: 0
  Syncope, no. of patients: 0
  Thrombocytopenia, no. of patients: 0
  Ventricular arrythmias (PVCs), no. of patients: 0
  Ventricular bigemini, no. of patients: 0
  Vomiting, no. of patients: 0
Level 2, 10 mg, 6 patients
  ALT (raised), no. of patients: 0
  AST (raised), no. of patients: 0
  Abdominal pain, no. of patients: 0
  Alkaline phophatase (raised), no. of patients: 1
  Altered taste, no. of patients: 0
  Anaemia, no. of patients: 0
  Anorexia, no. of patients: 0
  Bilirubin (raised), no. of patients: 0
  CPK, no. of patients: 0
  Cardiac arrythmia other, no. of patients: 0
  Cardiac dysfunction, no. of patients: 0
  Cardiac ischaemia, no. of patients: 0
  Constipation, no. of patients: 0
  Creatinine (raised), no. of patients: 0
  Diarrhoea, no. of patients: 0
  Fatigue, no. of patients: 0
  Leukopenia, no. of patients: 0
  Lymphopenia, no. of patients: 2
  Mucositis, no. of patients: 0
  Myositis, no. of patients: 0
  Nausea, no. of patients: 0
  Neutropenia, no. of patients: 0
  QT prolongation, no. of patients: 0
  Supra ventricular arrythmia, no. of patients: 0
  Syncope, no. of patients: 0
  Thrombocytopenia, no. of patients: 0
  Ventricular arrythmias (PVCs), no. of patients: 0
  Ventricular bigemini, no. of patients: 0
  Vomiting, no. of patients: 0
Level 3, 20 mg, 6 patients
  ALT (raised), no. of patients: 0
  AST (raised), no. of patients: 0
  Abdominal pain, no. of patients: 0
  Alkaline phophatase (raised), no. of patients: 1
  Altered taste, no. of patients: 0
  Anaemia, no. of patients: 1
  Anorexia, no. of patients: 0
  Bilirubin (raised), no. of patients: 0
  CPK, no. of patients: 1
  Cardiac arrythmia other, no. of patients: 0
  Cardiac dysfunction, no. of patients: 0
  Cardiac ischaemia, no. of patients: 0
  Constipation, no. of patients: 0
  Creatinine (raised), no. of patients: 0
  Diarrhoea, no. of patients: 0
  Fatigue, no. of patients: 0
  Leukopenia, no. of patients: 0
  Lymphopenia, no. of patients: 0
  Mucositis, no. of patients: 0
  Myositis, no. of patients: 1
  Nausea, no. of patients: 0
  Neutropenia, no. of patients: 0
  QT prolongation, no. of patients: 0
  Supra ventricular arrythmia, no. of patients: 0
  Syncope, no. of patients: 1
  Thrombocytopenia, no. of patients: 0
  Ventricular arrythmias (PVCs), no. of patients: 0
  Ventricular bigemini, no. of patients: 0
  Vomiting, no. of patients: 0
Level 4, 30 mg, 4 patients
  ALT (raised), no. of patients: 0
  AST (raised), no. of patients: 0
  Abdominal pain, no. of patients: 0
  Alkaline phophatase (raised), no. of patients: 0
  Altered taste, no. of patients: 0
  Anaemia, no. of patients: 0
  Anorexia, no. of patients: 0
  Bilirubin (raised), no. of patients: 0
  CPK, no. of patients: 0
  Cardiac arrythmia other, no. of patients: 0
  Cardiac dysfunction, no. of patients: 0
  Cardiac ischaemia, no. of patients: 0
  Constipation, no. of patients: 0
  Creatinine (raised), no. of patients: 0
  Diarrhoea, no. of patients: 0
  Fatigue, no. of patients: 0
  Leukopenia, no. of patients: 0
  Lymphopenia, no. of patients: 0
  Mucositis, no. of patients: 0
  Myositis, no. of patients: 0
  Nausea, no. of patients: 0
  Neutropenia, no. of patients: 0
  QT prolongation, no. of patients: 0
  Supra ventricular arrythmia, no. of patients: 0
  Syncope, no. of patients: 0
  Thrombocytopenia, no. of patients: 0
  Ventricular arrythmias (PVCs), no. of patients: 0
  Ventricular bigemini, no. of patients: 0
  Vomiting, no. of patients: 0
Level 5, 50 mg, 4 patients
  ALT (raised), no. of patients: 0
  AST (raised), no. of patients: 0
  Abdominal pain, no. of patients: 0
  Alkaline phophatase (raised), no. of patients: 0
  Altered taste, no. of patients: 0
  Anaemia, no. of patients: 0
  Anorexia, no. of patients: 0
  Bilirubin (raised), no. of patients: 0
  CPK, no. of patients: 0
  Cardiac arrythmia other, no. of patients: 0
  Cardiac dysfunction, no. of patients: 0
  Cardiac ischaemia, no. of patients: 0
  Constipation, no. of patients: 0
  Creatinine (raised), no. of patients: 0
  Diarrhoea, no. of patients: 0
  Fatigue, no. of patients: 0
  Leukopenia, no. of patients: 0
  Lymphopenia, no. of patients: 2
  Mucositis, no. of patients: 0
  Myositis, no. of patients: 0
  Nausea, no. of patients: 0
  Neutropenia, no. of patients: 0
  QT prolongation, no. of patients: 0
  Supra ventricular arrythmia, no. of patients: 0
  Syncope, no. of patients: 0
  Thrombocytopenia, no. of patients: 0
  Ventricular arrythmias (PVCs), no. of patients: 0
  Ventricular bigemini, no. of patients: 0
  Vomiting, no. of patients: 0
Level 5.5, 60 mg, 7 patients
  ALT (raised), no. of patients: 2
